The results in this text go back to US9957264B2 (Merck Sharp & Dohme Corp., priority 2013, dated 2018).

The target in assay [1] is JAK1 (recombinant purified GST-tagged catalytic domain) (Homo sapiens (Human), UniProt P23458). The experiment in a line: Jak Biochemical HTRF Assay (JAK1). The settings on record: [ATP] 31.8 μM. In short, it runs like this:
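Read-out is the 665/615 nm time-resolved FRET ratio from Eu-pY20 antibody and streptavidin-Dylight 650 bound to phosphorylated biotin-peptide. Reactions ran 120 min at room temperature after ATP start. Inhibition normalized to untreated controls gave IC50 via 4-parameter fit.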

Assay [2] addresses JAK2 (recombinant purified GST-tagged catalytic domain) (Homo sapiens (Human), UniProt O60674). The experiment in a line: Jak Biochemical HTRF Assay (JAK2). The settings on record: [ATP] 8.5 μM.

JAK2 (recombinant purified GST-tagged catalytic domain), sequence (O60674 849-1124): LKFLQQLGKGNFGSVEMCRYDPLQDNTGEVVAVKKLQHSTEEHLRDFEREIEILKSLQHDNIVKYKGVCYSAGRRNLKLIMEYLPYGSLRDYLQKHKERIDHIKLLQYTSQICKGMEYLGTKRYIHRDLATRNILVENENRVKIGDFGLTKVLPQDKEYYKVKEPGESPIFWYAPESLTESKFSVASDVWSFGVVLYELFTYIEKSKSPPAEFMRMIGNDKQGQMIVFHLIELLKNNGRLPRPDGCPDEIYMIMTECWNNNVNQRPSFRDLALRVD
JAK1 (recombinant purified GST-tagged catalytic domain), sequence (P23458 875-1153): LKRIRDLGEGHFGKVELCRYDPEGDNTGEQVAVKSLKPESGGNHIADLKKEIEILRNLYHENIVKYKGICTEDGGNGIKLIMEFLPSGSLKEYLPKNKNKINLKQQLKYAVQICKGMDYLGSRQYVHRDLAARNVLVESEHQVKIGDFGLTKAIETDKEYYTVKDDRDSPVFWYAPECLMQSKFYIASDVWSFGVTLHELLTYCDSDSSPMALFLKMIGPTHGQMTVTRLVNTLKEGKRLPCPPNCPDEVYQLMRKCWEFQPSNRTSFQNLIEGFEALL

As to `CC(C)(C)OC(=O)[C@@H]1CC[C@@](CC#N)(n2nc(Nc3ccc4nc(C(N)=O)ccc4c3)c3c(=O)[nH]ccc32)CO1` [Example 5-223, (2S,5S)-tert-butyl 5-(3-((2-carbamoylquinolin-6-yl)amino)-4-oxo-4,5-dihydro-1H-pyrazolo[4,3-c]pyridin-1-yl)-5-(cyanomethyl)tetrahydro-2H-pyran-2-carboxylate], the IC50 (usually the concentration at which inhibition is half-maximal) in assay [1] was determined as 0.07 nM; in assay [2], 0.82 nM.

As to `Cc1cc(Nc2nn([C@]3(CC#N)CC[C@@H](C(=O)OC(C)(C)C)OC3)c3cc[nH]c(=O)c23)ccc1C(=O)N1CCOC(C)C1` (single isomer, unassigned) [Example 20-10, (2S,5S)-tert-butyl 5-(cyanomethyl)-5-(3-((3-methyl-4-((S or R)-2-methylmorpholine-4-carbonyl)phenyl)amino)-4-oxo-4,5-dihydro-1H-pyrazolo[4,3-c]pyridin-1-yl)tetrahydro-2H-pyran-2-carboxylate], the figures for the IC50 in assay [1] and in assay [2] were 0.21 nM and 0.31 nM, respectively.

For `CC(C)(C)S(=O)(=O)c1ccc(Nc2nn(C3(CC#N)CCOCC3)c3cc[nH]c(=O)c23)cc1` [Example 5-252, 2-(4-(3-((4-(tert-butylsulfonyl)phenyl)amino)-4-oxo-4,5-dihydro-1H-pyrazolo[4,3-c]pyridin-1-yl)tetrahydro-2H-pyran-4-yl)acetonitrile], the IC50 in assay [1] was found to be 0.34 nM; in assay [2] it was 0.84 nM.

As for `CC1CCN1S(=O)(=O)c1ccc(Nc2nn([C@]3(CC#N)CCCOC3)c3cc[nH]c(=O)c23)cc1` (single isomer, unassigned) [Example 5-108, [(3S)-3-{3-[(4-{[(2R or 2S)-2-methylazetidin-1-yl]sulfonyl}phenyl)amino]-4-oxo-4,5-dihydro-1H-pyrazolo[4,3-c]pyridin-1-yl}tetrahydro-2H-pyran-3-yl]acetonitrile], the IC50 in assay [1] turned out to be 0.12 nM; in assay [2], 0.23 nM.

In the case of `CC(C)(C)N1Cc2cc(Nc3nn(C4(CC#N)CCCCC4)c4cc[nH]c(=O)c34)ccc2S1(=O)=O` [Example 5-80, 2-(1-(3-((2-(tert-butyl)-1,1-dioxido-2,3-dihydrobenzo[d]isothiazol-5-yl)amino)-4-oxo-4,5-dihydro-1H-pyrazolo[4,3-c]pyridin-1-yl)cyclohexyl)acetonitrile], the IC50 in assay [1] worked out at 0.08 nM; in assay [2] it was 1.21 nM.

For `CC(C)(C)OC(=O)N1CC[C@](CC#N)(n2nc(Nc3ccccc3)c3c(=O)[nH]ccc32)[C@H](F)C1` [Example 5-19, tert-butyl (3R,4R)-4-(cyanomethyl)-3-fluoro-4-[4-oxo-3-(phenyl-amino)-4,5-dihydro-1H-pyrazolo[4,3-c]pyridin-1-yl]piperidine-1-carboxylate], the IC50 in assay [1] and in assay [2] was 0.08 nM throughout.

Turning to `N#CC[C@]1(n2nc(Nc3ccc(Cl)cc3)c3c(=O)[nH]ccc32)CC[C@@H](NCC(F)(F)F)CC1` [Example 18-10, Cis 2-(1-(3-((4-chlorophenyl)amino)-4-oxo-4,5-dihydro-1H-pyrazolo[4,3-c]pyridin-1-yl)-4-((2,2,2-trifluoroethyl)amino)cyclohexyl)acetonitrile], the IC50 in assay [1] was found to be 74 nM; in assay [2], 1020 nM.

As for `Cc1cc(Nc2nn([C@]3(CC#N)CCCOC3)c3cc[nH]c(=O)c23)ccc1C(=O)N1CCOCC1` [Example 5-118, (S)-2-(3-(3-((3-methyl-4-(morpholine-4-carbonyl)phenyl)amino)-4-oxo-4,5-dihydro-1H-pyrazolo[4,3-c]pyridin-1-yl)tetrahydro-2H-pyran-3-yl)acetonitrile], the results for the IC50 in assay [1] and in assay [2] were 0.34 nM and 0.76 nM, respectively.

As to `N#CC[C@]1(n2nc(Nc3ccc(OC(F)(F)F)cc3)c3c(=O)[nH]ccc32)CC[C@H](NC2CCCCC2)CC1` [Example 18-19, Trans 2-(4-(cyclohexylamino)-1-(4-oxo-3-((4-(trifluoromethoxy)phenyl)amino)-4,5-dihydro-1H-pyrazolo[4,3-c]pyridin-1-yl)cyclohexyl)acetonitrile], the IC50 in assay [1] was found to be 0.37 nM; in assay [2] it was 36.6 nM.

In the case of `CCOC(=O)C(C)(C)C(O)(c1ccc(Nc2nn([C@]3(CC#N)CCCOC3)c3cc[nH]c(=O)c23)cc1)C(F)(F)F` (single isomer, unassigned) [Example 5-112, (S or R)-ethyl 3-(4-((1-((3S)-3-(cyanomethyl)tetrahydro-2H-pyran-3-yl)-4-oxo-4,5-dihydro-1H-pyrazolo[4,3-c]pyridin-3-yl)amino)phenyl)-4,4,4-trifluoro-3-hydroxy-2,2-dimethylbutanoate], the IC50 was determined as 1.07 nM in assay [1] and 2.53 nM in assay [2].

`CN(C)S(=O)(=O)c1ccc(Nc2nn(C3(CC#N)CCN(Cc4ccc(F)cc4)CC3)c3cc[nH]c(=O)c23)cc1` [Example 8-7, 4-({1-[4-(cyanomethyl)-1-(4-fluorobenzyl)piperidin-4-yl]-4-oxo-4,5-dihydro-1H-pyrazolo[4,3-c]pyridin-3-yl}amino)-N,N-dimethylbenzenesulfonamide]: the IC50 stood at 0.21 nM in assay [1] and 0.63 nM in assay [2].

On to `N#CC[C@@]1(n2nc(Nc3cc(F)c4nccc(Cl)c4c3)c3c(=O)[nH]ccc32)CCOC1` (single isomer, unassigned) [Example 5-243, [(3R or 3S)-3-{3-[(4-chloro-8-fluoroquinolin-6-yl)amino]-4-oxo-4,5-dihydro-1H-pyrazolo[4,3-c]pyridin-1-yl}tetrahydrofuran-3-yl]acetonitrile], for which the IC50 in assay [1] amounted to 6.62 nM; in assay [2], 100 nM.

Turning to `CC(O)(c1ccc(Nc2nn([C@]3(CC#N)CCCOC3)c3cc[nH]c(=O)c23)cc1)C(F)(F)F` (single isomer, unassigned) [Example 5-111, {(3S)-3-[4-oxo-3-({4-[(1R or 1S)-2,2,2-trifluoro-1-hydroxy-1-methylethyl]phenyl}amino)-4,5-dihydro-1H-pyrazolo[4,3-c]pyridin-1-yl]tetrahydro-2H-pyran-3-yl}acetonitrile], the IC50 in assay [1] was found to be 0.09 nM; in assay [2], 0.35 nM.

For `Cc1cc(Nc2nn([C@]3(CC#N)CCCOC3)c3cc[nH]c(=O)c23)ccc1C(=O)N1CC[C@@H](F)C1` [Example 5-115, 2-((S)-3-(3-((4-((R)-3-fluoropyrrolidine-1-carbonyl)-3-methylphenyl)amino)-4-oxo-4,5-dihydro-1H-pyrazolo[4,3-c]pyridin-1-yl)tetrahydro-2H-pyran-3-yl)acetonitrile], the values for the IC50 in assay [1] and in assay [2] were 0.33 nM and 0.99 nM, respectively.

For `CC(C)NC(C)(C)c1ccc(Nc2nn([C@]3(CC#N)CC[C@@H](C(=O)OC(C)(C)C)OC3)c3cc[nH]c(=O)c23)cc1` [Example 5-274, (2S,5S)-tert-butyl 5-(cyanomethyl)-5-(3-((4-(2-(isopropylamino)propan-2-yl)phenyl)amino)-4-oxo-4,5-dihydro-1H-pyrazolo[4,3-c]pyridin-1-yl)tetrahydro-2H-pyran-2-carboxylate], the IC50 in assay [1] is 0.36 nM; in assay [2], 0.26 nM.

Take `N#CCC1(n2nc(Nc3ccc(C(F)(F)F)cc3)c3c(=O)[nH]ccc32)CCC(N2CC(F)C2)CC1` (single isomer, unassigned) [Example 18-2, 2-(4-(3-fluoroazetidin-1-yl)-1-(4-oxo-3-((4-(trifluoromethyl)phenyl)amino)-4,5-dihydro-1H-pyrazolo[4,3-c]pyridin-1-yl)cyclohexyl)acetonitrile]: the IC50 in assay [1] was determined as 6.8 nM; in assay [2] it was 64 nM.

Consider `N#CCC1(n2nc(Nc3ccc4c(c3)CN(CC(F)(F)F)C4=O)c3c(=O)[nH]ccc32)CCCC1` [Example 5-138, 2-(1-(4-oxo-3-((1-oxo-2-(2,2,2-trifluoroethyl)isoindolin-5-yl)amino)-4,5-dihydro-1H-pyrazolo[4,3-c]pyridin-1-yl)cyclopentyl)acetonitrile], for which the IC50 in assay [1] was found to be 0.31 nM; in assay [2], 1.51 nM.

Turning to `CC(C)(C)OC(=O)N1CCC(CC#N)(n2nc(Nc3cc(Cn4cccn4)cc(Cn4cccn4)c3)c3c(=O)[nH]ccc32)CC1` [Example 5-60, tert-butyl 4-(3-(3,5-bis((1H-pyrazol-1-yl)methyl)phenylamino)-4-oxo-4,5-dihydropyrazolo[4,3-c]pyridin-1-yl)-4-(cyanomethyl)piperidine-1-carboxylate], the IC50 in assay [1] was determined as 1.07 nM; in assay [2], 0.46 nM.

Take `CC(C)S(=O)(=O)c1ccc(Nc2nn([C@]3(CC#N)CC[C@@H](C(=O)OC(C)(C)C)OC3)c3cc[nH]c(=O)c23)cc1` [Example 5-237, (2S,5S)-tert-butyl 5-(cyanomethyl)-5-(3-((4-(isopropylsulfonyl)phenyl)amino)-4-oxo-4,5-dihydro-1H-pyrazolo[4,3-c]pyridin-1-yl)tetrahydro-2H-pyran-2-carboxylate]: the IC50 in assay [1] worked out at 0.15 nM; in assay [2], 0.28 nM.

Regarding `CN(C)S(=O)(=O)c1ccc(Nc2nn(C3(CC#N)CCN(C(=O)C4CC(F)(F)C4)CC3)c3cc[nH]c(=O)c23)cc1` [Example 9-7, 4-[(1-{4-(cyanomethyl)-1-[(3,3-difluorocyclobutyl)carbonyl]piperidin-4-yl}-4-oxo-4,5-dihydro-1H-pyrazolo[4,3-c]pyridin-3-yl)amino]-N,N-dimethylbenzenesulfonamide], the IC50 amounted to 0.09 nM in assay [1] and 0.51 nM in assay [2].

`CC(O)(c1ccc(Nc2nn([C@@]3(CC#N)CCCC[C@H]3F)c3cc[nH]c(=O)c23)cc1)C(F)(F)F` (single isomer, unassigned) [Example 5-86, {(1R,2R)-2-fluoro-1-[4-oxo-3-({4-[(1R or 1S)-2,2,2-trifluoro-1-hydroxy-1-methylethyl]phenyl}amino)-4,5-dihydro-1H-pyrazolo[4,3-c]pyridin-1-yl]cyclohexyl}acetonitrile]: the figures for the IC50 in assay [1] and in assay [2] were 0.07 nM and 0.11 nM, respectively.
